# Measurements taken from paper PMC3207826, “Phase I Evaluation of STA-1474, a Prodrug of the Novel HSP90 Inhibitor Ganetespib, in Dogs with Spontaneous Cancer” (PLoS ONE, 2011).
# Entries after “also recorded” stand apart in the source; their conditions may differ.
# Legend:
# [1] = Toxicity assessment (VCOG-CTCAE grades) in Phase I trial; type: in vivo, dogs
# Method: This study was a Phase I dose escalating, open label assessment of the safety and pharmacokinetics of STA-1474 in client owned dogs with spontaneous malignancies. Dogs were administered STA-1474 on one of three dosing regimens and were evaluated weekly or twice per week dependent on the regimen used. Assessment of clinical toxicities and tumor response was performed at each visit. Dogs were evaluated for hematologic and biochemical toxicities every 7 days with routine bloodwork. The initial dose of STA-1474 was set at 7 mg/kg based on previous data from normal laboratory dogs (data not shown) and dose escalation was set at 2.5 mg/kg increments in cohorts of 3 until dose limiting toxicity (DLT) was identified. The DLT was considered to be any grade 3 or 4 hematologic or non-hematologic toxicity based on the established VCOG-CTAE criteria. […] Disease progression or signs and symptoms definitely related to disease were not considered adverse events (AEs).
# Each patient underwent a baseline complete history, physical examination, and predose laboratory assessment that included a complete blood count (CBC), serum biochemistry profile, and urinalysis. Patients were assessed for adverse events on days 8, 15, 22, and 29, at which time a complete blood count with differential and clinical chemistry were performed. Urinalysis was performed at baseline and repeated only if indicated. Stipulations regarding minimal hematological requirements to continue dosing were included in the protocol: hematocrit >25%, neutrophils >[…], platelets >[…]. In addition, liver transaminases were required to be <4X upper limit of normal with a normal total bilirubin and serum creatinine to continue STA-1474 therapy.
# spontaneous tumors = assay: Tumor response assessment (RECIST); type: in vivo, dogs
# Method: Tumor assessments were completed prior to study entry, and days 8, 15, 22, and 29. For dogs that continued beyond the planned 4 doses of STA-1474, response assessments were performed every 3–6 weeks thereafter, or at the time of suspected tumor progression. Responses were assessed by the investigator according to pre-defined protocol criteria. The response in dogs with assessable disease was performed by clinical examination, radiography, ultrasonography, or CT scans. Many lesions were not amenable for quantitative radiographic imaging, but were followed either by serial clinical examination (superficial lesions; palpable lymph nodes) or by ultrasonography (abdominal lymph nodes). Thoracic lesions were assessed by thoracic radiography and nasal lesions by CT scan.
# The response in dogs with measurable disease was judged by the investigator on the basis of RECIST criteria. A complete response (CR) was defined as disappearance of all disease on two measurements separated by a minimum period of 3 weeks. A partial response (PR) was defined as greater than 30% reduction in the sum of the longest diameter of the target lesions documented by two assessments separated by at least 3 weeks. An increase of >20% in the size of all measurable tumor areas as measured by the sum of longest diameters of the target lesions taken as reference the smallest sum since initiation of therapy, or the appearance of any new lesion(s) would qualify as progressive disease (PD). A mixed response (MR) was defined as PR in some target lesions with PD in other target lesions. Stable disease (SD) was defined by the absence of criteria for either a response or progression. Dogs who had no evidence of tumor progression and who had not experienced any unacceptable toxicity were eligible for extended treatment cycles. Dose escalation in an individual dog was permitted if the dog was tolerating therapy.
# HSP70 = assay: Evaluation of HSP70 expression in tumor biopsies and PBMCs (ELISA, Western blot); type: in vivo, dogs
# HSP90 = assay: Evaluation of tumor biopsies for HSP90 expression (Western blot); type: in vivo, dogs; conditions: tumor samples, 24 hrs following treatment, 5 mg/kg over 1 hour
# Method: Frozen tumor samples were processed as described above, then resuspended in 100–150 uL of lysis buffer consisting of 20 mM Tris-HCl pH 8.0, 137 mM NaCl, 10% glycerol, 1% IGEPAL CA-630, 10 mM ethylenediaminetetraacetic acid (EDTA), 1 mg/mL aprotinin, 1 mg/mL leupeptin, 1 mg/mL pepstatin A, 1 mM phenylmethysulphonyl fluoride, 1 mM sodium orthovanadate, 10 mM sodium fluoride (all from Sigma, St. Louis, MO). Sample were rocked at 4°C for 1 hour, and then centrifuged for 15 minutes at 13,000 RCF. A Bradford protein assay was performed on the lysates using BioRad Reagent (Hercules, CA). 60–100 µg of protein were separated by SDS-page, and transferred to PVDF membranes. The membranes were incubated overnight with anti-HSP90 antibodies (Cell Signaling Technology, Danvers, MA), washed, then incubated with horseradish peroxidase linked secondary antibody. Membranes were washed again, then exposed to Super Signal West Dura Extended Duration Substrate (Pierce, Rockford, IL) Membranes were stripped, washed, and reprobed for β-Actin (Santa Cruz Biotechnology, Santa Cruz, CA) using the SNAP i.d. apparatus (Millipore, Billerica, MA) according to manufacture's instructions.
# [2] = tested on: canine MCT and OSA cell lines; conditions: cited from earlier work; for activity compared with 17-AAG: OSA and MCT cell lines
# OSA xenografts = conditions: cited from earlier work
# [3] = Ganetespib pharmacokinetics in plasma after STA-1474 infusion (LC-MS/MS); type: in vivo, dogs; conditions: for half-life / AUC(0-t) / Cmax / Tmax: iv, STA-9090 in plasma, mean, day 1
# Method: Plasma samples were collected on day 1 and day 22 of therapy at the specified intervals: before and after dosing at 30, 60, 90, 120, 180, 300 (5 hr), 540 (9 hr), and 1440 (24 hr) minutes relative to the start of dosing. On day 8, day 15, and day 29, plasma was collected before dosing only. Approximately 1 ml of blood was drawn from an indwelling catheter, placed in a sodium heparin vacuum glass tube, and placed on ice until centrifugation. Blood samples were centrifuged at 3300 rpm for 10 minutes, within 30 minutes of collection. Plasma was transferred by pipette into two cryovials and stored at −80°C until analysis.
# Plasma concentrations of ganetespib were determined using a qualified liquid chromatography tandem mass spectrometry (LC-MS/MS) method. Samples were analyzed on an HPLC system consisting of an Agilent HP1100 separation module (Santa Clara, CA) coupled to an AB SCIEX API400 MS/MS detector (Foster City, CA). Stable isotope-labeled ganetespib was used as an internal standard. Sample extraction was performed by a liquid-liquid extraction method with 25 µL plasma samples and 800 µL methyl tertiary butyl ether. The organic phase of samples was evaporated to dryness under nitrogen and reconstituted with water/acetonitrile solution for injection. Chromatographic separation was achieved on a reverse-phase analytical column (4 µm particle, 50×2.0 mm i.d.) with gradient elution of water/0.1% formic acid and acetonitrile/0.1% formic acid at a flow rate of 500 µL/min. The total run time was 4 min. Quantitation was achieved by MS/MS detection in positive ion mode by multiple reaction monitoring. The lower limit of quantitation (LLOQ) was 1.00 ng/mL, with a concentration range from 1.00 to 1000 ng/mL.
# The pharmacokinetic parameters for ganetespib were determined from the plasma concentration data using the Noncompartmental Analysis module in WinNonlin, version 5.2 (Pharsight Corporation, St.Louis, MO). The predose samples that measured below the LLOQ (BQL) were treated as zero for the calculations. Maximum concentration (Cmax) and time of maximum concentration (Tmax) were directly determined from the observed concentration-time profiles. The area under the plasma concentration-time curve (AUC) was estimated by the linear trapezoidal rule. The apparent half-life (t1/2) was calculated as t1/2 = 0.693/λ where λ was the elimination rate constant estimated from the regression of the terminal slope of the concentration versus time curve.
# human cancer cell lines = tested on: human cancer cell lines; parameters: method as in earlier work; conditions: in vitro; 15 and unpublished data, Synta Pharmaceuticals Corp.; cited from earlier work
# MCT xenograft = conditions: murine MCT xenograft model; cited from earlier work
# [4] = 1 hr/2x week, 5.0 mg/kg, 7 dogs
# [5] = dog, plasma, 5 mg/kg, STA-1474 5 mg/kg, 1 h infusion, twice weekly
# [6] = dog, plasma, 9.5 mg/kg, STA-1474 9.5 mg/kg, 1 h infusion, once weekly
# [7] = dog, plasma, 9.5 mg/kg, STA-1474 9.5 mg/kg, 8 h infusion, once weekly
compound,measurement,setting,value
CC(C)c1cc(-c2nnc(O)n2-c2ccc3c(ccn3C)c2)c(O)cc1OP(=O)(O)O [STA-1474],Anorexia grade 1 (count),[1]; [4],3
same,Anorexia grade 2 (count),[1]; [4],5
same,Diarrhea grade 1 (count),[1]; [4],5
same,Diarrhea grade 2 (count),[1]; [4],1
same,Diarrhea grade 3 (count),[1]; [4],1
same,Lethargy grade 1 (count),[1]; [4],4
same,Lethargy grade 2 (count),[1]; [4],2
same,Anorexia grade 2 (count),"[1]; 1 hr/week, 7.0 mg/kg, 4 dogs",2
same,Diarrhea grade 1 (count),"[1]; 1 hr/week, 7.0 mg/kg, 4 dogs",2
same,Diarrhea grade 2 (count),"[1]; 1 hr/week, 7.0 mg/kg, 4 dogs",3
same,Lethargy grade 1 (count),"[1]; 1 hr/week, 7.0 mg/kg, 4 dogs",2
same,Vomiting grade 1 (count),"[1]; 1 hr/week, 7.0 mg/kg, 4 dogs",3
same,Diarrhea grade 1 (count),"[1]; 1 hr/week, 9.5 mg/kg, 5 dogs",1
same,Diarrhea grade 3 (count),"[1]; 1 hr/week, 9.5 mg/kg, 5 dogs",1
same,Lethargy grade 2 (count),"[1]; 1 hr/week, 9.5 mg/kg, 5 dogs",1
same,Lethargy grade 3 (count),"[1]; 1 hr/week, 9.5 mg/kg, 5 dogs",1
same,Vomiting grade 2 (count),"[1]; 1 hr/week, 9.5 mg/kg, 5 dogs",2
same,Anorexia grade 2 (count),"[1]; 1 hr/week, 10.25 mg/kg, 3 dogs",3
same,Diarrhea grade 2 (count),"[1]; 1 hr/week, 10.25 mg/kg, 3 dogs",3
same,Lethargy grade 2 (count),"[1]; 1 hr/week, 10.25 mg/kg, 3 dogs",3
same,Vomiting grade 2 (count),"[1]; 1 hr/week, 10.25 mg/kg, 3 dogs",1
same,Anorexia grade 1 (count),"[1]; 8 hr/week, 9.5 mg/kg, 6 dogs",5
same,Anorexia grade 2 (count),"[1]; 8 hr/week, 9.5 mg/kg, 6 dogs",4
same,Diarrhea grade 1 (count),"[1]; 8 hr/week, 9.5 mg/kg, 6 dogs",4
same,Diarrhea grade 2 (count),"[1]; 8 hr/week, 9.5 mg/kg, 6 dogs",4
same,Lethargy grade 1 (count),"[1]; 8 hr/week, 9.5 mg/kg, 6 dogs",2
same,Vomiting grade 2 (count),"[1]; 8 hr/week, 9.5 mg/kg, 6 dogs",3
same,maximum tolerated weekly dose,"[1]; administered weekly over 1 or 8 hours, intravenous",9.5 mg/kg
same,hematologic or biochemical toxicities,[1]; any doses or regimens,No drug-related hematologic or biochemical toxicities; also recorded: no evidence of hematologic toxicity
same,dogs with partial responses,"spontaneous tumors; 5 mg/kg over one hour twice per week, 7 dogs, both MCTs",2
same,objective responses,"spontaneous tumors; 1 hr once per week dosing regimen, n = 12, exception one dog with oral malignant melanoma after extravasation",no objective responses
same,biologic activity rate,"spontaneous tumors; 8 hour infusion group, 9.5 mg/kg once weekly, 2PR, 1 MR, 2 SD of 6",83%
same,response rate (measurable objective responses),"spontaneous tumors; all dogs, 6/25",24%
same,overall biological activity (objective responses plus stable disease >10 weeks),"spontaneous tumors; all dogs, 9/25",36%
same,duration of mixed response,"spontaneous tumors; metastatic MCT, 8 hour infusion 9.5 mg/kg",16 weeks
same,duration of partial response,"spontaneous tumors; metastatic OSA, 8 hour infusion 9.5 mg/kg",20 weeks
same,duration of partial response,"spontaneous tumors; metastatic thyroid carcinoma, 8 hour infusion 9.5 mg/kg",36 weeks
same,duration of stable disease,"spontaneous tumors; metastatic thyroid carcinoma, switched from 1 hr to 8 hr infusion",40 weeks
same,duration of continued partial response,"spontaneous tumors; oral malignant melanoma with extravasation event, on 8 hour infusion protocol",12 weeks
same,duration of stable disease,"spontaneous tumors; two dogs, both metastatic OSA, 8 hour infusion 9.5 mg/kg",12 weeks
same,HSP70 expression (Western blot),"HSP70; PBMCs, 24 hours after 9.5 mg/kg over 8 hours",small increases in HSP70 expression
same,time to upregulation of HSP70 protein expression,"HSP70; tumor specimens and PBMCs, following drug administration",≤ 7 h
same,HSP90 expression levels (Western blot),HSP90,did not appear to change substantially
same,activity compared with 17-AAG,[2],superior activity
same,tumor effect,OSA xenografts,induced tumor regression
CC(C)c1cc(-c2n[nH]c(=O)n2-c2ccc3c(ccn3C)c2)c(O)cc1O [ganetespib],sustained blood levels,"[3]; dog with oral melanoma, extravasation (mostly subcutaneous) of STA-1474, first dosing cohort",200 to 600 ng/mL
same,duration of sustained blood levels,"[3]; dog with oral melanoma, extravasation of STA-1474, levels between 200–600 ng/ml",8 to 10 h
same,half-life,"[3]; dog, STA-1474 5 mg/kg, 1 h infusion, twice weekly",6.1 h
same,half-life,"[3]; dog, STA-1474 9.5 mg/kg, 1 h infusion, once weekly",5.6 h
same,AUC,"[3]; dog, plasma, intravenous, range over the three dosing regimens of STA-1474",5010 to 5700 ng·h/mL
same,AUC(0-t),[3]; [5],5010 ng·h/mL
same,Cmax,[3]; [5],3420 ng/mL
same,Tmax,[3]; [5],1.1 h
same,AUC(0-t),[3]; [6],5700 ng·h/mL
same,Cmax,[3]; [6],3980 ng/mL
same,Tmax,[3]; [6],0.7 h
same,AUC(0-t),[3]; [7],5600 ng·h/mL
same,Cmax,[3]; [7],802 ng/mL
same,Tmax,[3]; [7],5.7 h
same,activity compared with 17-AAG,[2],superior activity
same,"concentrations for biologic effects, lower than those for 17-AAG",[2]; canine MCT and OSA cell lines,at least 1 log
same,concentrations killing cancer cell lines,human cancer cell lines,low nanomolar concentrations
same,tumor growth,MCT xenograft,inhibited tumor growth
